Target: POLRMT (Homo sapiens (Human), UniProt O00411)
Test: homogeneous TR-FRET assay of mitochondrial transcription (inhibition of POLRMT)
Type: biochemical
Settings: 7.5 nM POLRMT, 15 nM TFB2M, 30 nM TFAM, 0.5 nM DNA template, 500 μM NTPs, 37° C. for 60 minutes
How it was run: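 POLRMT transcription from linearized pUC-LSP DNA template; RNA product detected by hybridization of ATTO647 acceptor (1 nM) and biotinylated donor (3 nM) probes plus Europium-streptavidin. Reaction stopped with EDTA/700 mM NaCl buffer, pH 7.5.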

Chain of POLRMT (O00411 42-1230): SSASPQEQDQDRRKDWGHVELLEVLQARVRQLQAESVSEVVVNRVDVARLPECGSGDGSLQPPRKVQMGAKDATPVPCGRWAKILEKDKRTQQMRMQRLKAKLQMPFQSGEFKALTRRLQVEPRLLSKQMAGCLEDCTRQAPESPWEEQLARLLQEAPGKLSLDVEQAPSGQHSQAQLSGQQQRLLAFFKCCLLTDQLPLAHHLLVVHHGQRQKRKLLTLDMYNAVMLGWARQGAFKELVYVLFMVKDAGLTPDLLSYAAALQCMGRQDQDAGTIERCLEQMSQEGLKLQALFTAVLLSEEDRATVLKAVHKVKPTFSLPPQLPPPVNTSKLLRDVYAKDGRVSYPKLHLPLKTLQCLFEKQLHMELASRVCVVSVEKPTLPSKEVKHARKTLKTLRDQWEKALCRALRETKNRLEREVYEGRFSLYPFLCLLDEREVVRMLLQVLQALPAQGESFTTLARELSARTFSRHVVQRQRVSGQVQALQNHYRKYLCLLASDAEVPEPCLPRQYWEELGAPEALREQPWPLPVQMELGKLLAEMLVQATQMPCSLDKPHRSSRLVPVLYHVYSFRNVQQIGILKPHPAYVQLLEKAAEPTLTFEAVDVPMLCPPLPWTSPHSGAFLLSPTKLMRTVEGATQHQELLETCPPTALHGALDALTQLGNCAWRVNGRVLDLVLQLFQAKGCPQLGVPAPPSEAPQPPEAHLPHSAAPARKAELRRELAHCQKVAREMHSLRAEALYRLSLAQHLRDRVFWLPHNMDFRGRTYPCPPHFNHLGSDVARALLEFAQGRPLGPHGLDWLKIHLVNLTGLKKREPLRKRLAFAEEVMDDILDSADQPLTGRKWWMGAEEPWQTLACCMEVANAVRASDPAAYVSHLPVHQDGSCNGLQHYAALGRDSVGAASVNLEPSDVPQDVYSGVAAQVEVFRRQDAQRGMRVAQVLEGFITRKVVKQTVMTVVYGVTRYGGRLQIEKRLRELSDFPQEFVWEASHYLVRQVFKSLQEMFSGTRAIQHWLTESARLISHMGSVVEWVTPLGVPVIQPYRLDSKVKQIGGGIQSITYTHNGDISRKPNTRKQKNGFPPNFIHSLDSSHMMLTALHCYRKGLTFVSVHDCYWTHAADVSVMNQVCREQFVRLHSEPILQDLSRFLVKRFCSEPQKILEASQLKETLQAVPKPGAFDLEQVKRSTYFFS

IC50 [µM]	SMILES
0.1	C[C@H](Cc1ccc2c(-c3ccc(F)cc3Cl)cc(=O)oc2c1)C(=O)N1CCC[C@H](C(=O)O)C1 [Example 187, (S)-1-((R)-3-(4-(2-chloro-4-fluorophenyl)-2-oxo-2H-chromen-7-yl)-2-methylpropanoyl)piperidine-3-carboxylic acid]
0.7	Cc1ccccc1-c1cc(=O)oc2cc(N(C)CCC(N)=O)ccc12 [Example 133, 3-(methyl(2-oxo-4-(o-tolyl)-2H-chromen-7-yl)amino)propanamide]
2	Cc1ccccc1-c1cc(=O)oc2cc(C(=O)Nc3ccccc3)ccc12 [Example 35, 2-oxo-N-phenyl-4-(o-tolyl)-2H-chromene-7-carboxamide]
0.1	Cc1ccccc1-c1cc(=O)oc2cc(N(C)Cc3ccnn3C)ccc12 [Example 193, 7-(methyl((1-methyl-1H-pyrazol-5-yl)methyl)amino)-4-(o-tolyl)-2H-chromen-2-one]
0.4	C[C@@H](Nc1ccc2c(-c3ccc(F)cc3Cl)cc(=O)oc2c1)C(=O)N1CCOCC1 [Example 47, (R)-4-(2-chloro-4-fluorophenyl)-7-((1-morpholino-1-oxopropan-2-yl)amino)-2H-chromen-2-one]
> 100	COc1ccccc1-c1cc(=O)oc2cc(NC(C)=O)ccc12 [Example 29, N-(4-(2-methoxyphenyl)-2-oxo-2H-chromen-7-yl)acetamide]
0.3	COC[C@@H](Nc1ccc2c(-c3ccccc3C)cc(=O)oc2c1)C(=O)N1CCC[C@H](C(=O)O)C1 [Example 104, (S)-1-(O-methyl-N-(2-oxo-4-(o-tolyl)-2H-chromen-7-yl)-D-seryl)piperidine-3-carboxylic acid]
0.2	Cc1ccccc1-c1cc(=O)oc2cc(N(C)CC(=O)O)ccc12 [Example 76, N-methyl-N-(2-oxo-4-(o-tolyl)-2H-chromen-7-yl)glycine]
0.3	Cc1ccccc1-c1cc(=O)oc2cc(CC(C)C(=O)N(C)C)ccc12 (single isomer, unassigned) [Example 64, N,N,2-trimethyl-3-(2-oxo-4-(o-tolyl)-2H-chromen-7-yl)propanamide]
18	CCOC(=O)/C(C)=C/c1ccc2c(-c3ccc(F)cc3Cl)cc(=O)oc2c1 [Example 14, ethyl (E)-3-(4-(2-chloro-4-fluorophenyl)-2-oxo-2H-chromen-7-yl)-2-methylacrylate]
27	Cc1ccccc1-c1cc(=O)oc2cc(C(=O)N(C)CC(N)=O)ccc12 [Example 112, N-(2-amino-2-oxoethyl)-N-methyl-2-oxo-4-(o-tolyl)-2H-chromene-7-carboxamide]
4	Cc1ccccc1-c1cc(=O)oc2cc(NCc3ccccn3)ccc12 [Example 164, 7-((pyridin-2-ylmethyl)amino)-4-(o-tolyl)-2H-chromen-2-one]
2	Cc1ccccc1-c1cc(=O)oc2cc(N[C@H](C)CC(=O)O)ccc12 [Example 148, (R)-3-((2-oxo-4-(o-tolyl)-2H-chromen-7-yl)amino)butanoic acid]
0.9	CN(CCC(N)=O)c1ccc2c(-c3ccc(F)cc3Cl)cc(=O)oc2c1 [Example 137, 3-((4-(2-chloro-4-fluorophenyl)-2-oxo-2H-chromen-7-yl)(methyl)amino)propanamide]
2	Cc1ccccc1-c1cc(=O)oc2cc(NCc3ccn(C)n3)ccc12 [Example 119, 7-(((1-methyl-1H-pyrazol-3-yl)methyl)amino)-4-(o-tolyl)-2H-chromen-2-one]
3	Cc1ccccc1-c1cc(=O)oc2cc(N[C@@H](CC(C)C)C(=O)O)ccc12 [Example 73, (2-oxo-4-(o-tolyl)-2H-chromen-7-yl)-L-leucine]
0.03	COC(=O)CN(C)c1ccc2c(-c3ccccc3C)cc(=O)oc2c1 [Example 143, methyl N-methyl-N-(2-oxo-4-(o-tolyl)-2H-chromen-7-yl)glycinate]
7	O=C(O)CCNc1ccc2c(-c3ccc(F)cc3Cl)cc(=O)oc2c1 [Example 129, 3-((4-(2-chloro-4-fluorophenyl)-2-oxo-2H-chromen-7-yl)amino)propanoic acid]
0.02	CCOC(=O)CN(C)c1ccc2c(-c3ccccc3C)cc(=O)oc2c1 [Example 142, ethyl N-methyl-N-(2-oxo-4-(o-tolyl)-2H-chromen-7-yl)glycinate]
2	CCOC(=O)/C=C/c1ccc2c(-c3ccccc3C)cc(=O)oc2c1 [Example 53, ethyl (E)-3-(2-oxo-4-(o-tolyl)-2H-chromen-7-yl)acrylate]

IC50 [µM]	SMILES
0.4	CNc1ccc2c(-c3ccc(F)cc3Cl)cc(=O)oc2c1 [Example 25, 4-(2-chloro-4-fluorophenyl)-7-(methylamino)-2H-chromen-2-one]
3	Cc1ccccc1-c1cc(=O)oc2cc(NCc3ccn[nH]3)ccc12 [Example 169, 7-(((1H-pyrazol-5-yl)methyl)amino)-4-(o-tolyl)-2H-chromen-2-one]
5	Cc1ccccc1-c1cc(=O)oc2cc(C(=O)NCc3nccn3C)ccc12 [Example 122, N-((1-methyl-1H-imidazol-2-yl)methyl)-2-oxo-4-(o-tolyl)-2H-chromene-7-carboxamide]
0.9	Cc1ccccc1-c1cc(=O)oc2cc(NC(C)C(N)=O)ccc12 (single isomer, unassigned) [Example 189, 2-((2-oxo-4-(o-tolyl)-2H-chromen-7-yl)amino)propanamide]
3	Cc1ccccc1-c1cc(=O)oc2cc(NCC(=O)N3CCCCC3)ccc12 [Example 72, 7-((2-oxo-2-(piperidin-1-yl)ethyl)amino)-4-(o-tolyl)-2H-chromen-2-one]
0.1	Cc1ccccc1-c1cc(=O)oc2cc(N(C)Cc3nnn[nH]3)ccc12 [Example 179, 7-(((1H-tetrazol-5-yl)methyl)(methyl)amino)-4-(o-tolyl)-2H-chromen-2-one]
5	Cc1ccccc1-c1cc(=O)oc2cc(CC(C)C(=O)N3CCC[C@H](S(C)(=O)=O)C3)ccc12 (single isomer, unassigned) [Example 86]
2	CNC(=O)c1ccc2c(-c3ccccc3C)cc(=O)oc2c1 [Example 02, N-methyl-2-oxo-4-(o-tolyl)-2H-chromene-7-carboxamide]
5	Cc1ccccc1-c1cc(=O)oc2cc([C@@H]3C[C@H]3C(=O)N(C)C)ccc12 (relative stereo) [Example 241, chiral-(trans)-N,N-dimethyl-2-(2-oxo-4-(o-tolyl)-2H-chromen-7-yl)cyclopropane-1-carboxamide]
> 100	Cc1ccccc1-c1cc(=O)oc2cc(C(=O)N3CCC(CN(C)C)C3)ccc12 (stereo not drawn) [Example 181, 7-(3-((dimethylamino)methyl)pyrrolidine-1-carbonyl)-4-(o-tolyl)-2H-chromen-2-one]
0.9	CNC(=O)CCN(C)c1ccc2c(-c3ccccc3C)cc(=O)oc2c1 [Example 140, N-methyl-3-(methyl(2-oxo-4-(o-tolyl)-2H-chromen-7-yl)amino)propanamide]
0.2	COCCNC(=O)CN(C)c1ccc2c(-c3ccccc3C)cc(=O)oc2c1 [Example 218, N-(2-methoxyethyl)-2-(methyl(2-oxo-4-(o-tolyl)-2H-chromen-7-yl)amino)acetamide]
> 100	Cc1cc(O[C@H](C)C(=O)N2CCC[C@H](C(=O)O)C2)c2c(-c3ccc(F)cc3)cc(=O)oc2c1 [Example 160, (S)-1-((R)-2-((4-(4-fluorophenyl)-7-methyl-2-oxo-2H-chromen-5-yl)oxy)propanoyl)piperidine-3-carboxylic acid]
3	CN(C)C(=O)N(C)Cc1ccc2c(-c3ccc(F)cc3Cl)cc(=O)oc2c1 [Example 06, 1-((4-(2-chloro-4-fluorophenyl)-2-oxo-2H-chromen-7-yl)methyl)-1,3,3-trimethylurea]
0.8	Cc1ccccc1-c1cc(=O)oc2cc(N(C)CC(=O)NCC(=O)O)ccc12 [Example 223, N-methyl-N-(2-oxo-4-(o-tolyl)-2H-chromen-7-yl)glycylglycine]
7	Cc1ccccc1-c1cc(=O)oc2cc(N(C)CC(=O)NS(C)(=O)=O)ccc12 [Example 191, 2-(methyl(2-oxo-4-(o-tolyl)-2H-chromen-7-yl)amino)-N-(methylsulfonyl)acetamide]
0.07	C[C@H](C(=O)N1CCOCC1)N(C)c1ccc2c(-c3ccc(F)cc3Cl)cc(=O)oc2c1 [Example 55, (R)-4-(2-chloro-4-fluorophenyl)-7-(methyl(1-morpholino-1-oxopropan-2-yl)amino)-2H-chromen-2-one]
3	Cc1ccccc1-c1cc(=O)oc2cc(C(=O)N3CC(C)(CO)C3)ccc12 [Example 124, 7-(3-(hydroxymethyl)-3-methylazetidine-1-carbonyl)-4-(o-tolyl)-2H-chromen-2-one]
0.7	Cc1ccc2c(-c3ccccc3C)cc(=O)oc2c1 [Example 39, 7-methyl-4-(o-tolyl)-2H-chromen-2-one]

— patent publication US20250326732A1 (Pretzel Therapeutics, Inc., priority 2021, published 2025)
